Values joined by “and” are separate entries in the source; they are usually repeats but may differ in a detail not shown here. Identical values can stand only once.
Legend:
[1] = target: T1, recombinant full-length PfCLK3 (Plasmodium falciparum, UniProt Q8IIL5); assay: TR-FRET protein kinase assay; format: biochemical; conditions: Apparent pIC50 (PfCLK3), 15 min preincubation, 2 h incubation
T1 sequence (Q8IIL5 1-699): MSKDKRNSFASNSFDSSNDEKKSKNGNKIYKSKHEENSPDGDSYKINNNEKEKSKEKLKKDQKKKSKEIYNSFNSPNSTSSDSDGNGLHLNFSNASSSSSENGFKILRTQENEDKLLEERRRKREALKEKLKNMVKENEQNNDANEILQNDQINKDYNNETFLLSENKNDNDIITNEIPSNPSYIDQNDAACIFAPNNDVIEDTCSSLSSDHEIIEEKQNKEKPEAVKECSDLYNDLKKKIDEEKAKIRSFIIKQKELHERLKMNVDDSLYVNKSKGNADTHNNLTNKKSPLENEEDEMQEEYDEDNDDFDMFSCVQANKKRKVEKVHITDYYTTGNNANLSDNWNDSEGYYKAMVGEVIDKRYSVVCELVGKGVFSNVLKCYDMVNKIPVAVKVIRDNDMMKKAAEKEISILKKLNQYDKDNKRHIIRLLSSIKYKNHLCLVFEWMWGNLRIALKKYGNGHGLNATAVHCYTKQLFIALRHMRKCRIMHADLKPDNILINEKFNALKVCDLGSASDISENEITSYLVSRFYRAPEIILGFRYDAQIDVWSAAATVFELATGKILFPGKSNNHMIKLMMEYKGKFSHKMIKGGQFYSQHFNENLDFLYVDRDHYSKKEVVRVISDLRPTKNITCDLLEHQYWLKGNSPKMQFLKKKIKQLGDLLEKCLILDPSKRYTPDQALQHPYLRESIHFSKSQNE
Description: To a black 384-well plate was added 2.5 μL of each concentration of inhibitor serially diluted 1 in 3, 11 times from a 40 μM (4×) top concentration normalized to 4% DMSO, and 5 μL of 50 nM (2×) recombinant PfCLK3. Both were dissolved in kinase buffer (50 mM HEPES 7.4, 1 mM EGTA, 1 mM MgCl2, 0.01% Tween, and 1 mM TCEP). […] 5 μL of detection mix (30 mM EDTA, 3 nM AntiMBP in 1× PerkinElmer Lance detection buffer) was added to quench the kinase reaction, and plates were incubated at room temperature in the dark for 1 h.

full-length PfCLK3 = conditions: PfCLK3 5 μg; triplicate wells
Description: To a 384-well thermal shift plate, 5 μL protein thermal shift buffer (Thermo Fisher Scientific), 5 μg full length PfCLK3 (4.17 μL, 1.2 mg/mL), 8.13 μL thermal shift buffer (Thermo Fisher Scientific), 0.2 μL 10 mM compound or vehicle (DMSO), and 2.5 μL protein thermal shift dye (Thermo Fisher Scientific) were added in triplicate. […] 5 Qpcr (Thermo Fisher Scientific). Fluorescence was recorded as proteins unfolded. The Boltzmann distribution was calculated and Tm obtained using Protein Thermal Shift Software v1.4 (Thermo Fisher Scientific).

Microsomal stability = format: in vitro ADME; conditions: human, liver microsomes, 0.5 mg/mL microsomes, 37 °C
Description: Peak areas were determined from extracted ion chromatograms.

[2] = target: T2, PI3 Kinase (p110a/p85a)(h) (Homo sapiens, UniProt P42336); assay: KinaseProfiler radiometric assay; format: biochemical; conditions: 1 µM compound
T2 construct: purchased Eurofins Discovery KinaseProfiler
Source text: (§1) A representative protocol for Abl is given below.

[3] = target: T3, PI3 Kinase (p110b/p85a)(h) (Homo sapiens, UniProt P42338); assay: KinaseProfiler radiometric assay; format: biochemical; conditions: 1 µM compound
T3 construct: purchased Eurofins Discovery KinaseProfiler
Source text: as §1

[4] = target: T4, PI3 Kinase (p110d/p85a)(h) (Homo sapiens, UniProt O00329); assay: KinaseProfiler radiometric assay; format: biochemical; conditions: 1 µM compound
T4 construct: purchased Eurofins Discovery KinaseProfiler
Source text: as §1

physchem = conditions: pH 7.5, GSH t1/2, 37 °C, 10:1 ratio GSH:compound
ALK(h) = ALK(h) (Homo sapiens, UniProt Q9UM73); assay: biochemical
Description: (§2) Compounds were evaluated using Eurofins Discovery’s KinaseProfiler Diversity Panel of 58 representative kinases. KinaseProfiler is a radiometric assay using [γ-^33P]-ATP to measure the phosphorylation of individual kinase substrates. A representative protocol for Abl is given below.
(§3) The reaction is initiated by the addition of the Mg/ATP mix. After incubation for 40 min at room temperature, the reaction is stopped by the addition of phosphoric acid to a concentration of 0.5%.

AMPKα1(h) = AMPKα1(h) (Homo sapiens, UniProt Q13131); assay: biochemical
Description: as §2, §3

CDK1/cyclinB(h) = CDK1/cyclinB(h) (Homo sapiens, UniProt P06493); assay: biochemical
Description: as §2, §3

CDK2/cyclinA(h) = CDK2/cyclinA(h) (Homo sapiens, UniProt P24941); assay: biochemical
Description: as §2, §3

CDK6/cyclinD3(h) = CDK6/cyclinD3(h) (Homo sapiens, UniProt Q00534); assay: biochemical
Description: as §2, §3

CDK7/cyclinH/MAT1(h) = CDK7/cyclinH/MAT1(h) (Homo sapiens, UniProt P50613); assay: biochemical
Description: as §2, §3

CDK9/cyclin T1(h) = CDK9/cyclin T1(h) (Homo sapiens, UniProt P50750); assay: biochemical
Description: as §2, §3

CHK1(h) = CHK1(h) (Homo sapiens, UniProt O14757); assay: biochemical
Description: as §2, §3

CK1γ1(h) = CK1γ1(h) (Homo sapiens, UniProt Q9HCP0); assay: biochemical
Description: as §2, §3

CK2α2(h) = CK2α2(h) (Homo sapiens, UniProt P19784); assay: biochemical
Description: as §2, §3

c-RAF(h) = c-RAF(h) (Homo sapiens, UniProt P04049); assay: biochemical
Description: as §2, §3

DRAK1(h) = DRAK1(h) (Homo sapiens, UniProt Q9UEE5); assay: biochemical
Sequence of DRAK1(h) (Q9UEE5 whole entry): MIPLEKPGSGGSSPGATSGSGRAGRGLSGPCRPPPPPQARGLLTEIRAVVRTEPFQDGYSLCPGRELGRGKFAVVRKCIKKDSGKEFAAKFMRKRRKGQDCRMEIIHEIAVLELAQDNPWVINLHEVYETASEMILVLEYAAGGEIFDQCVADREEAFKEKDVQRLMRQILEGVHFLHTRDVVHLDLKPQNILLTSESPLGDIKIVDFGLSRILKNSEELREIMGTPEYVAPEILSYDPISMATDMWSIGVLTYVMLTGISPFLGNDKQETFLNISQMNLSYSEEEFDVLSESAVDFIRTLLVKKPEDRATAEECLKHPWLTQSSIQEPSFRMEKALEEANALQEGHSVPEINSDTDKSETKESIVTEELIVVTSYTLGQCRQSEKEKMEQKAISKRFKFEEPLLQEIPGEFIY
Description: as §2, §3

T3 sequence (P42338 whole entry): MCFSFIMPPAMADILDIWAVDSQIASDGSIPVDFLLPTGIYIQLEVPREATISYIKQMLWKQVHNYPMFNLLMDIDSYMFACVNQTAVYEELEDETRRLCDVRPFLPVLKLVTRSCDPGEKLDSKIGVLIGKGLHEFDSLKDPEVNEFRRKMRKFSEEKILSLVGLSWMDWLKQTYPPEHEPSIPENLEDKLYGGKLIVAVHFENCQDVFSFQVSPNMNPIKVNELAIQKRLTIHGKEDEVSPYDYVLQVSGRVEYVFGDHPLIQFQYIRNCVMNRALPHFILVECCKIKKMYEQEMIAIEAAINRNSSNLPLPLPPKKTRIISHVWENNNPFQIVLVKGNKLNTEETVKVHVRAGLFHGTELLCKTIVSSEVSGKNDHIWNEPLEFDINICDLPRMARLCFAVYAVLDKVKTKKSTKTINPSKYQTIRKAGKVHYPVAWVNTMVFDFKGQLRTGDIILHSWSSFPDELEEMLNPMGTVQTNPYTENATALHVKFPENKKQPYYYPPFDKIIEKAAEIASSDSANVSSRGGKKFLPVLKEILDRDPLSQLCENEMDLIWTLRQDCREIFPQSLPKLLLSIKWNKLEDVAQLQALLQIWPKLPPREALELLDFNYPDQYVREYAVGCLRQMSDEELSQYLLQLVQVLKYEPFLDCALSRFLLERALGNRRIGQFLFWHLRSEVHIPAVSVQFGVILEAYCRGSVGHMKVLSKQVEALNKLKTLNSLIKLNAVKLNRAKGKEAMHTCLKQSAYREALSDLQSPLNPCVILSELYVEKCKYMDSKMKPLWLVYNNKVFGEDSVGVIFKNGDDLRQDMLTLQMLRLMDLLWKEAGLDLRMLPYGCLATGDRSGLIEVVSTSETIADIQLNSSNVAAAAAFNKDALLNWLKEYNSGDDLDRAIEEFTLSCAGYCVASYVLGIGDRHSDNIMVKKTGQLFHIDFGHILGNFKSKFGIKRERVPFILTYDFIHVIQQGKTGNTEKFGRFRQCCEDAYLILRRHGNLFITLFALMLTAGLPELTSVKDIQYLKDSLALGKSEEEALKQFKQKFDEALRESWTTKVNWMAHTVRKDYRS
T3 sequence (P27986 whole entry partner): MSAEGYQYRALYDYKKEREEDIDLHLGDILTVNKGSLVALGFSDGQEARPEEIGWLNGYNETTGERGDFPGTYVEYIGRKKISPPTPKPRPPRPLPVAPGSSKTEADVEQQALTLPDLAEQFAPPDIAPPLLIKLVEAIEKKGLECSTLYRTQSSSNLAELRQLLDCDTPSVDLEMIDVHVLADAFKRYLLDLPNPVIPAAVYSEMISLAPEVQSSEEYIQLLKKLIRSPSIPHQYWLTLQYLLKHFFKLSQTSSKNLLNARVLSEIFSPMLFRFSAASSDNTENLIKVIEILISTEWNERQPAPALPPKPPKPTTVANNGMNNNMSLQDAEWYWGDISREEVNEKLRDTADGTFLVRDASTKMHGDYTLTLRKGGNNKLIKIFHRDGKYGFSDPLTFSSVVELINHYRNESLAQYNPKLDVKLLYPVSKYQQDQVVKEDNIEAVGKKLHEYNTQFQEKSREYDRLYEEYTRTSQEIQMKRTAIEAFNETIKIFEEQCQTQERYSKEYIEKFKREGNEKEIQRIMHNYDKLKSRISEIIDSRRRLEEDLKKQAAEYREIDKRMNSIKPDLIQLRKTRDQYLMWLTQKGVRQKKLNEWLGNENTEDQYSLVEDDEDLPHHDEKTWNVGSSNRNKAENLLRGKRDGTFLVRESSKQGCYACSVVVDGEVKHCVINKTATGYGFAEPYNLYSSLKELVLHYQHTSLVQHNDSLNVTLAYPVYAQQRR
Sequence of CHK1(h) (O14757 whole entry): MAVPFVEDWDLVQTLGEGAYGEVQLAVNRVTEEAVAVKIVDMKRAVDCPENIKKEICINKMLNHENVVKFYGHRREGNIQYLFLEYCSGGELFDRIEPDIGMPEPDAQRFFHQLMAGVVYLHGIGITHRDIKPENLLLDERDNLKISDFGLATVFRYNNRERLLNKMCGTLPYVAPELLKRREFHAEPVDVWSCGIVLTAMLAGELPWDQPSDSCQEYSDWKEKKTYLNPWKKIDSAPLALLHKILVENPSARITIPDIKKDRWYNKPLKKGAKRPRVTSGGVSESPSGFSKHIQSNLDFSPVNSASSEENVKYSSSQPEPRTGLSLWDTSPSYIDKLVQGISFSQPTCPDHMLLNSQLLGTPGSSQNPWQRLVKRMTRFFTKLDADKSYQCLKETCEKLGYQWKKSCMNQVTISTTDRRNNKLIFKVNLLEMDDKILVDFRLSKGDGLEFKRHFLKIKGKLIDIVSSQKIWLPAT
T4 sequence (O00329 whole entry): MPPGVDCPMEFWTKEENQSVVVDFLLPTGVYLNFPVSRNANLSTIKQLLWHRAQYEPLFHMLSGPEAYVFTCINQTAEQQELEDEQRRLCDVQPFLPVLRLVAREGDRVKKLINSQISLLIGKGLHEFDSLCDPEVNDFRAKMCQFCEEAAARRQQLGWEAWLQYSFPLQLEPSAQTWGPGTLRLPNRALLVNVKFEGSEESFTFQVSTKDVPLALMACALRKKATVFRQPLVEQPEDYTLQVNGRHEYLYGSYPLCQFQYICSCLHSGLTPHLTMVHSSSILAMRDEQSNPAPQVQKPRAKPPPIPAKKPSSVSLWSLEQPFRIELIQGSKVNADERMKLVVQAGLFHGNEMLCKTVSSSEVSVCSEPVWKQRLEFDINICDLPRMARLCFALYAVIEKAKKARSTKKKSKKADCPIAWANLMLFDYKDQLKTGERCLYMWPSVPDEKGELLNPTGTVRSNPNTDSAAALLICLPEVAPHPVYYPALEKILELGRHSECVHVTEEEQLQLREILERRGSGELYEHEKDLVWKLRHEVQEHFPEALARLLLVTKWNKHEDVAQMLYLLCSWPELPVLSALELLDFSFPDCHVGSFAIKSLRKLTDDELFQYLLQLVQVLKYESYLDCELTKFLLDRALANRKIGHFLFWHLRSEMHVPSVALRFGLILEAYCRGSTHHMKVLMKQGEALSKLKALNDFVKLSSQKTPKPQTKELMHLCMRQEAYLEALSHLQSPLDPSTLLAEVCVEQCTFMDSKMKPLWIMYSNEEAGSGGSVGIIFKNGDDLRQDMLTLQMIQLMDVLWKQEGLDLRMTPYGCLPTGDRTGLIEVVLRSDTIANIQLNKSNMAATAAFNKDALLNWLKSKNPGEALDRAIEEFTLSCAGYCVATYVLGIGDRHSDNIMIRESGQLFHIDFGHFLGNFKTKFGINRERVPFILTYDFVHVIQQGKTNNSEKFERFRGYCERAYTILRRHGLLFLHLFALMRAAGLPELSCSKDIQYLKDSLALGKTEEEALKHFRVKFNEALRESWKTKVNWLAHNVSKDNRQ
T4 sequence (P27986 whole entry partner): as the sequence (P27986 whole entry partner) above
Sequence of CDK9/cyclin T1(h) (P50750 whole entry): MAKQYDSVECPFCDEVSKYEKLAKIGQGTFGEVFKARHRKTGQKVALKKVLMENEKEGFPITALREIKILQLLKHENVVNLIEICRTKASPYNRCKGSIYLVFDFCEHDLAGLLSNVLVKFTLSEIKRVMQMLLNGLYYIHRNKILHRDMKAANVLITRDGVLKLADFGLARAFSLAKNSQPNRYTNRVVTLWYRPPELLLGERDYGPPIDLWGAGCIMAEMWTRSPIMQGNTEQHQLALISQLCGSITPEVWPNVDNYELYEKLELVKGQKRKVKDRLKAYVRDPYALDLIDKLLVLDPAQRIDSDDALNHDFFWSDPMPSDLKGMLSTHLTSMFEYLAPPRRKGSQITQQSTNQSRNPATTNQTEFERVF
Sequence of CDK9/cyclin T1(h) (O60563 whole entry partner): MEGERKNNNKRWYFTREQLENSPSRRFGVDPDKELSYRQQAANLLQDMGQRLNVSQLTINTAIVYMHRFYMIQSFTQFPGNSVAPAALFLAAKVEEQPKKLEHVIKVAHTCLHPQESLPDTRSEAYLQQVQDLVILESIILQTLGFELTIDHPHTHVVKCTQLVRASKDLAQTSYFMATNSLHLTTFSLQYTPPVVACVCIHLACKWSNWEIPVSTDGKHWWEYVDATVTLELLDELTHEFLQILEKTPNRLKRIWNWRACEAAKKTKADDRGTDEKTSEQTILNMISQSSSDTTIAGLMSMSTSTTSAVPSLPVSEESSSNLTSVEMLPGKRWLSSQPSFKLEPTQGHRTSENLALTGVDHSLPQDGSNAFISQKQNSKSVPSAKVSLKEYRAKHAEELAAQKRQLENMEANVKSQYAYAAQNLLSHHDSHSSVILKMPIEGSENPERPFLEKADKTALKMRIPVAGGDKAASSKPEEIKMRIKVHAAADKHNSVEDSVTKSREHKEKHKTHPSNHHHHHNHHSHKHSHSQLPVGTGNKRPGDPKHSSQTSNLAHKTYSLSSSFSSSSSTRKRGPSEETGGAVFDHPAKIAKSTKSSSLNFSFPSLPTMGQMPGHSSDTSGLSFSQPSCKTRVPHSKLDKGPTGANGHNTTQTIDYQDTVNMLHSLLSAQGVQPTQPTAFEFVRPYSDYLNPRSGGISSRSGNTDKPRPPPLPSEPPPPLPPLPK

## CCN(CC)Cc1ccc(OC)c(-c2cc3c(-c4ccc(C(=O)O)c(C(C)C)c4)ccnc3[nH]2)c1 [Compound 1, TCMDC-135051]
[1]; [ATP] = 500 μM
  IC50: 87.1 nM
[1]; [ATP] = 3 mM
  IC50: 447 nM
[1]; [ATP] = Km (5 μM)
  IC50: 7.76 nM
full-length PfCLK3
  Tm B: 66.66 and 66.67 and 66.65
Microsomal stability; read-out: HLM CLint (intrinsic clearance)
  microsomal CLint at 1 μM: < 7.5 µL/min/mg
Microsomal stability; read-out: HLM t1/2
  half-life at 1 μM: > 3.07 h
[2]
  remaining activity at 1 µM: 100%
[3]
  remaining activity at 1 µM: 99%
[4]
  remaining activity at 1 µM: 73%
physchem
  half-life at 1 mM: > 72 h
ALK(h)
  remaining activity at 1 µM: 30%
AMPKα1(h)
  remaining activity at 1 µM: 46%
CDK1/cyclinB(h)
  remaining activity at 1 µM: 15%
CDK2/cyclinA(h)
  remaining activity at 1 µM: 30%
CDK6/cyclinD3(h)
  remaining activity at 1 µM: 82%
CDK7/cyclinH/MAT1(h)
  remaining activity at 1 µM: 102%
CDK9/cyclin T1(h)
  remaining activity at 1 µM: 6%
CHK1(h)
  remaining activity at 1 µM: 101%
CK1γ1(h)
  remaining activity at 1 µM: 85%
CK2α2(h)
  remaining activity at 1 µM: 39%
c-RAF(h)
  remaining activity at 1 µM: 106%
DRAK1(h)
  remaining activity at 1 µM: 83%

Source: publication PMC11571108, “Targeting PfCLK3 with Covalent Inhibitors: A Novel Strategy for Malaria Treatment” (Journal of Medicinal Chemistry, 2024)
